Assay type in all cases: cell-based, human
Data set [1] concerns 293-WT cells (do not express PSMA). Put plainly: CD69 and Nur77 expression of ABT cells with 293-WT cells. Conditions: engineered ABT cells, 100 nM. The source says: (§1) Cells were stained for surface marker expression via Pacific Blue-conjugated mouse anti-human CD4, and AlexaFluor700-conjugated mouse anti-human CD8a, VioBright FITC-conjugated mouse anti-human NGFR, and anti-huCD69, fixed and permeabilized in Permiabilization concentrate diluted in permeabilization diluent, and stained intracellularly with PE-conjugated mouse anti-mouse Nur77.

The test system of a further data set is HEK293-WT cells. Briefly: Cytokine production of engineered ABT cells, controls with 293-WT cells or no tumor cells. Conditions: Media+CIR; 293-WT+CIR. As for the experimental part:
(§2) Measuring cytokine production following stimulation with HEK-293 cells: In a 96 well round bottom plate, 4E5 HEK293-PSMA cells (PSMA expressing) or HEK293-WT cells were incubated with 4E5 Anti-DNP TAC ABT cells, Anti-DNP DAP12 SAR ABT cells, or Anti-CD28 CAR ABT-cells. […] To stop the activation 20 mM EDTA was added and incubated for 15 minutes. Cells were stained for surface expression of CD4 and CD8, fixed and permeabilized in Cytofix/Cytoperm buffer, and stained with APC-conjugated mouse anti-human interferon-gamma, and FITC-conjugated mouse anti-human tumor necrosis factor-alpha. Cells were then run on the Beckman Coulter Cytoflex flow cytometer. The percent of cells positive for tumor necrosis factor-alpha and interferon-gamma for CD4 and CD8 T-cell populations were graphed separately showing the same overall trends.

The subject of data set [2] is HEK293-PSMA cells (PSMA expressing). Briefly: Cytokine production of engineered ABT cells following stimulation with HEK293-PSMA cells. As for the experimental part: as §2
Data set [3] concerns 293-PSMA cells. Briefly: CD69 and Nur77 expression of activated ABT cells with 293-PSMA cells.
Text: as §1

In data set [4] the test system is PSMA-positive LNCaP cells. Put plainly: Anti-DNP GDT cell mediated killing of LNCaP cells (Incucyte). Here is the method: Measuring T cell mediated killing of LNCaP cells: LNCaP prostate cancer cells, which are prostate specific membrane antigen (PSMA) positive, were engineered with Nuclight Red lentivirus to produce cells with nuclear localized red fluorescence to allow for ease of imaging in these experiments. […] Samples were run in triplicate. The number of LNCaP cells per well at each time point was calculated using the Incucyte cell by cell analysis software and plotted. The area under the growth curve was used as a metric for tumor cell growth for this figure. The larger the area, the greater the tumor cell growth that occurred over the 3 days. The area under the curve for the LNCaP control and each condition were used to calculate the % cytotoxicity.

Data set [5] has as its system PSMA-positive LNCaP cells. Put plainly: Anti-DNP TAC ABT cell mediated killing of LNCaP cells (Incucyte). As for the experimental part: Measuring T cell mediated killing of LNCaP cells: LNCaP prostate cancer cells, which are prostate specific membrane antigen (PSMA) positive, were engineered with Nuclight Red lentivirus to produce cells with nuclear localized red fluorescence to allow for ease of imaging in these experiments. […] The 3 components were co-cultured for 3 days with 4 images per well taken every 6 hours. Samples were run in triplicate. The number of LnCap cells per well at each time point was calculated using the Incucyte cell by cell analysis software and plotted. The area under the growth curve was used as a metric for tumor cell growth for this figure. The larger the area, the greater the tumor cell growth that occurred over the 3 days. The area under the curve for the LnCap control and each condition were used to calculate the % cytotoxicity.

The subject of data set [6] is 293-PSMA cells. Briefly: Proliferation of adapter functionalized engineered ABT cells (CellTrace Violet). Here is the method:
Each engineered T cell was also cultured in media alone as a control to compare to. All proliferation assay samples were incubated for 3 days at 37° C. and 5% CO2. Cells were then stained with Live/Dead Fixable Near-IR stain, PerCP-Cy5.5-conjugated mouse anti-human CD8a, Alexa Fluor 700-conjugated mouse anti-human CD4, VioBright FITC-conjugated mouse anti-human NGFR, and BV605-conjugated mouse anti-human CD3. Flow cytometry data were acquired.

Data set [7] concerns PSMA transduced HEK-293 cells. Put plainly: IFN-gamma / TNF-alpha production of Anti-DNP TAC ABT cells following stimulation with HEK-293 PSMA cells. The note with it: Anti-DNP TAC ABT cells prelabelled 6 hours; co-culture 4 hours. As for the experimental part:
The cells were co-cultured together for 4 hours at 37 degrees. Golgi plug was added prior to the co-incubation to prevent cytokine secretion. To stop the activation 20 mM EDTA was added and incubated for 15 minutes. The cells were spun down, media was aspirated, and the cells were stored in 200 μL of cRPMI overnight at 4 degrees. The next day, the cells were surface stained with anti-CD4 Pacific Blue, anti-CD8 Alexa Fluor 700, and anti-NGFR Viobright FITC. The cells were then fixed and permeabilized using a fix/perm buffer solution. The cells were then intracellularly stained with anti-CD3 BV605, anti-TNF-alpha PE-CY7, and anti-IFN-gamma APC. Cells were then run on the Beckman Coulter Cytoflex flow cytometer. The percent of cells positive for TNF-alpha and IFN-gamma, as well as cells positive for both were recorded in the table for the separate CD4 and CD8 T-cell populations.

In data set [8] the test system is PSMA transduced HEK-293 cells. Put plainly: CD69 upregulation of DNP-TAC T cells following stimulation with HEK-293 PSMA cells. The note with it: DNP-TAC T cells pre labelled 6 hours; co-culture overnight. Here is the method:
The cells were co-cultured together overnight at 37 degrees. To stop the activation, 20 mM EDTA was added and incubated for 15 minutes. The cells were spun down, media was aspirated, and the cells were stored in 200 μL of cRPMI at 4 degrees prior to staining. The cells were stained with Live-Dead Zombie Aqua, anti-CD3 BV605, anti-CD4 Pacific Blue, anti-CD8 Alexa Fluor 700, anti-NGFR Viobright FITC, and anti-CD69 BV650. Upon staining the cells were run on the Beckman Coulter Cytoflex flow cytometer and analyzed for CD69 expression.

In another data set the test system is uPAR-positive A172 cells. Briefly: Anti-DNP GDT cell mediated killing of A172 cells. The note with it: Anti-DNP CD28 CAR GDT cells; E:T 8:1; 1, 10, 100 nM; 3 days. As for the experimental part:
Engineering GDT cells with Anti-DNP DAP12-SAR or Anti-DNP CD28 CAR: PBMC were seeded at 4E6 cells per well in a 24 well G-Rex plate in the presence of 1 ug/ml zoledronate and 1.5 ng/ml human IL2. Three days later, the cells were incubated overnight in a 24 well non tissue culture treated plate that was pre coated with retronectin and retrovirus supernatant containing viruses encoding the Anti-DNP DAP12-SAR or Anti-DNP CD28 CAR. The cells were then transferred back to the G-Rex plate and cultured for a further 11 days at which point, the cell product was collected, CD4/CD8 T cells were removed by magnetic selection and the purified engineered GDT cells were cryopreserved.
Measuring T cell mediated killing of A172 cells: A172 cells, which are urokinase type plasminogen activator receptor (uPAR) positive, were engineered with eGFP lentivirus to produce green fluorescent protein expressing cells. […] Also added to the wells were uPAR-CIR or uPAR-(N)CIR at a range of concentrations from 1 nM, 10 nM and 100 nM. […] Samples were run in triplicate. The green image mean of the wells at each time point was calculated using the Incucyte cell by cell analysis software and plotted to yield the following figures. […] For the analysis of killing by Anti-DNP CD28 CAR GDT cells, the area under the growth curve (AUC) was analyzed using PRISM Graphpad and to calculate the % cytotoxicity.

“Also recorded” adds a separate entry of the source.

The values that follow come from US20260248852A1, “SYNTHETIC ANTIGEN RECEPTORS FOR COVALENT IMMUNE RECRUITERS AND METHODS AND USES THEREOF” (McMaster University, priority 2022, published 2026).

On to `O=C(O)CC[C@H](NC(=O)N[C@@H](CCCCNC(=O)NCCOCCOCCOCCOCCOCCOCCOCCOC(=O)n1cnc(CCNC(=O)CNc2ccc([N+](=O)[O-])cc2[N+](=O)[O-])c1)C(=O)O)C(=O)O` [PSMA-CIR, DNP-Acyl Imidazole-Glutamate Urea Lysine], for which the “Nur77 and CD69 (off-target activation)” value in data set [1] is “no increase of Nur77 or CD69 above the media-only control”. In addition, the “cytokine production in controls” value in the data set with HEK293-WT cells is “the controls showed no cytokine production”. Further, the “cytokine production, compared to PSMA-(N)CIR” value in data set [2] (CD28-CAR T cells, 1 nM, 10 nM) is recorded as “increased cytokine production at lower concentrations”. Also, the cytokine production entry in data set [2] (CD28-CAR T cells, highest concentration (100 nM)) is “equivalent levels of cytokine production”; in data set [2] (DAP12-SAR T cells, 1, 10, 100 nM) it was “strongest activation was mediated by the CIR”; in data set [2] (TAC T cells, 1, 10, 100 nM), “only activated by the CIR”. Moreover, the “production of interferon-gamma and tumor necrosis factor-alpha” value in data set [2] (all three engineered receptors (TAC, DAP12-SAR, CD28-CAR) ABT cells, 1, 10, 100 nM) was “target specific production of interferon-gamma and tumor necrosis factor-alpha; also recorded: Increased cytokine production”. In addition, the “T cell activation (Nur77, CD69), compared to PSMA-(N)CIR” value is given as “greater activation at both concentrations” with 293-PSMA cells [3] (Anti-DNP DAP12-SAR T cells, 10 nM and 1 nM); “much greater activation” in the data set with 293-PSMA cells [3] (Anti-DNP-CD28 CAR T cells). Also, the “T cell activation (Nur77, CD69)” value in the data set on 293-PSMA cells [3] (Anti-DNP TAC-T cells, 10 nM and 1 nM) is “could elicit T cell activation”. Further, the “upregulation of Nur77 and CD69” value in the data set with 293-PSMA cells [3] (TAC, DAP12-SAR and CD28-CAR ABT cells, 293-PSMA, 100 nM, 4 hours) is “Upregulation of Nur77 and CD69; also recorded: only occurred in the presence of CIR and PSMA-expressing target cells”. In the data set with 293-PSMA cells [3] (all engineered ABT cells, 293-PSMA, 10 nM and 1 nM), the “upregulation of Nur77 and CD69, CIR compared to (N)CIR” value is “stronger with CIR compared to (N)CIR; also recorded: increased activation and downstream signal strength”. Besides, the “adapter concentration at which tumor killing is observed” value in data set [4] (Anti-DNP CD28 CAR GDT cells) and in data set [4] (Anti-DNP DAP12 SAR GDT cells) was at most 15 nM throughout. Further, the “killing of LNCaP cells” value was “could direct T cell cytotoxicity; also recorded: displayed tumor growth control” in data set [4] (Anti-DNP CD28 CAR GDT cells, 125 nM adapter); “could trigger killing; also recorded: only suppressed tumor growth in the presence of the PSMA-CIR” in data set [4] (Anti-DNP DAP12-SAR GDT cells, 125 nM adapter); “robust LNCaP killing” in data set [4] (CD28 CAR GDT cells, 10 nM adapter); “could trigger killing; also recorded: promoted killing of the LNCaP cells at low nM concentrations” in data set [5] (E:T 8:1, 15.63 nM to 125 nM, 3 days). Also, the “killing of LNCaP cells after preincubation and wash” value in [4] (Anti-DNP DAP12 SAR and Anti-DNP CD28 CAR GDT cells, 1 uM adapter for 6 hours, washed, then co-culture) is given as “retained the ability to kill LNCaP cells”. In addition, in data set [4] (both Anti-DNP DAP12-SAR GDT cells and Anti-DNP CD28 CAR GDT cells, 15.6 nM-250 nM), the “LNCaP killing over a range of concentrations” value was “sustained across all concentrations”. For the same molecule, in [5] (E:T 8:1, 3 days), the “concentration effective at engaging tumor killing” value is at most 15 nM. For the same molecule, in the data set on 293-PSMA cells [6] (Anti-DNP CD28 CAR T cells), the “T cell proliferation, PSMA-CIR versus PSMA-(N)CIR” value is recorded as “performed similarly”. For the same molecule, the “T cell proliferation (percent divided)” value was “robust proliferation” in the data set with 293-PSMA cells [6] (Anti-DNP DAP12 SAR T cells, 1 nM, 10 nM, or 100 nM); “only entered proliferation when co-cultured with 293-PSMA cells and 100 nM PSMA-CIR” in the data set with 293-PSMA cells [6] (Anti-DNP TAC T cells, 1, 10, 100 nM, 3 days). In addition, the “production of IFN-gamma and TNF-alpha” value in data set [7] is “production of IFN-gamma and TNF-alpha”. The “T cell activation based on upregulation of CD69” value in data set [8] is listed as “PSMA-specific activation; also recorded: capable of stimulating Anti-DNP TAC T cell activation”.
Regarding `CC(C)C[C@H](NC(=O)[C@H](Cc1ccc(O)cc1)NC(=O)[C@@H](CCCNC(=N)N)NC(=O)[C@@H](CO)NC(=O)[C@H](Cc1ccccc1)NC(=O)[C@H](CC1CCCCC1)NC(=O)[C@H](CC(=O)O)NC(=O)CNC(=O)[C@H](CO)NC(=O)CNC(=O)CNC(=O)[C@H](CCCCNc1ccc([N+](=O)[O-])cc1[N+](=O)[O-])NC(=O)c1cccc(S(=O)(=O)F)c1)C(=O)N[C@@H](Cc1c[nH]c2ccccc12)C(=O)N[C@@H](CO)C(=O)O` [uPAR-CIR, DNP-SuFEx-uPAR binding peptide], in the data set with uPAR-positive A172 cells, the “cytotoxicity towards A172 cells” value is “exhibited cytotoxicity; also recorded: can be redirected”.
